In one assay the test system is P. falciparum K1. The assay can be described thus: Malaria in vitro screening model (3H-hypoxanthine incorporation). The following applies: for IC50: Plasmodium falciparum, K1. The class given is cell-based, Plasmodium falciparum. How it is done: […] P. falciparum K1 is used in this study. K1 (a clone originating from Thailand) is resistant to chloroquine and pyrimethamine. The strains are maintained in RPMI 1640 medium with 0.36 mM hypoxanthine, supplemented with 25 mM N 2-hydroxyethyipiperazine-N-2-ethane-sulphonic acid (HEPES), 25 mM NaHCO3, neomycin (100 U/mL) and 5 g/L of ALBUMAX® II (lipid-rich bovine serum albumin, GIBCO, Grand Island, N.Y., USA), together with 5% washed human A+ erythrocytes. All cultures and assays are conducted at 37° C. under an atmosphere of 4% CO2, 3% O2 and 93% N2. Cultures are kept in incubation chambers filled with the gas mixture. Subcultures are diluted to a parasitemia of between 0.1 and 0.5% and the medium is changed daily.
Antimalarial activity is assessed using an adaptation of the procedures described by Desjardins et al. (Antimicrob. Agents Chemother. 16:710-718, 1979), and Matile and Pink (In: Lefkovits, I. and Pernis, B. (Eds.), Immunological Methods Vol. IV, Academic Press, San Diego, pp. 221-234, 1990).
Stock drug solutions are prepared in 100% dimethylsulfoxide (DMSO) at 10 mg/mL, and heated or sonicated if necessary to dissolve the sample. After use, the stocks are kept at −20° C. For the assays, the compound is further diluted in serum-free culture medium and finally to the appropriate concentration in complete medium without hypoxanthine.
Assays are performed in sterile 96-well microtiter plates, each well containing 200 μl of parasite culture (0.15% parasitemia, 2.5% hematocrit) with or without serial drug solutions. Seven 2-fold dilutions are used, covering a range from […] to 0.078 μg/mL. For active compounds the highest concentration is lowered (e.g., to […]); for plant extracts the highest concentration is increased to 50 μg/mL. […] After 48 hours of incubation at 37° C., 0.5 μCi ^3H-hypoxanthine is added to each well. Cultures are incubated for a further 24 h before being harvested onto glass-fiber filters and washed with distilled water. The radioactivity is counted using a Betaplate liquid scintillation counter (Wallac, Zurich, Switzerland). The results are recorded as counts per minute per well at each drug concentration and expressed as percentage of the untreated controls. IC50 values are calculated from the sigmoidal inhibition curves using Microsoft EXCEL.

The subject of assay [1] is T. b. rhodesiense STIB 900. Kind of assay: African sleeping sickness in vitro screening model (Alamar Blue). Type of assay: cell-based, Trypanosoma brucei rhodesiense. To be noted: for IC50: Trypanosoma brucei. How it is done:
Bloodstream from trypomastigotes of the strains (a) and (c) are maintained in Minimal Essential Medium (MEM) with Earle's salts supplemented according to Baltz, et al., (EMBO J. 4:1273-1277, 1985) with 25 mM N-2-hydroxyethylpiperazine-N′-2-ethane-sulphonic acid (HEPES), 1 g/L additional glucose, 1% MEM non-essential amino acids (100×), 0.2 mM 2-mercaptoethanol, 2 mM sodium pyruvate, 0.1 mM hypoxanthine and 15% heat-inactivated horse serum.
All cultures and assays are conducted at 37° C. under an atmosphere of 5% CO2 in air.
After use the stocks are kept at −20° C. For the assays, the compound is further diluted in serum-free culture medium and finally to the appropriate concentration in complete medium without hypoxanthine.
Assays are performed in 96-well microtiter plates, each well containing 100 μL of culture medium with 8×10^3 bloodstream forms with or without a serial drug dilution. The highest concentration for the test compounds is 90 μg/mL. Seven 3-fold drug dilutions are used, covering a range from 90 μg/mL to 0.123 μg/mL. Each drug is tested in duplicate. Active compounds are tested twice for confirmation. The final result is the mean of the four individual IC50 values. After 72 hrs of incubation, the plates are inspected under an inverted microscope to assure growth of the controls and sterile conditions.
Ten μL of Alamar Blue (12.5 mg resazurin dissolved in 100 mL distilled water) are now added to each well and the plates are incubated for another 2 hours. Then the plates are read with a Spectramax GEMINI XS microplate fluorometer (Molecular Devices Cooperation, Sunnyvale, Calif., USA) using an excitation wavelength of 536 nm and an emission wave length of 588 nm.
IC50 values are determined using the microplate reader software Softmax Pro (Molecular Devices Cooperation, Sunnyvale, Calif., USA).

Assay [2] has as its system Trypanosoma cruzi Tulahuen C2C4 strain. The assay can be described thus: Chagas disease in vitro screening model (beta-galactosidase strain in L-6 cells). Type of assay: cell-based. To be noted: for IC50: Trypanosoma cruzi, TULAHUEN, L6, read-out: T. cruzi IC50. How it is done:
Trypanosoma cruzi Tulahuen C2C4 strain, containing the β-galactosidase (Lac Z) gene (Buckner et al., Antimicrob. Agents Chemother 40:2592-2597, 1996) is used for this study.
The infective amastigote and trypomastigote stages are cultivated in L-6 cells (a rat skeletal myoblast cell line) in RPMI 1640 medium supplemented with 2 mM L-glutamine and 10% heat-inactivated fetal bovine serum in 12.5 cm^2 tissue culture flasks. Amastigotes develop intracellularly, differentiate into trypomastigotes, and leave the host cell. These trypomastigotes infect new L-6 cells and are the stages used to initiate an infection in the assay. All cultures and assays are conducted at 37° C. under an atmosphere of 5% CO2 in air.
(§1) After use the stocks are kept at −20° C. For the assays, the compound is further diluted to the appropriate concentration using complete medium.
Assays are performed in sterile 96-well microtiter plates, each well containing 100 μl medium with 2×10^3 L-6 cells. After 24 hours, […] of a trypanosome suspension containing 5×10^3 trypomastigote bloodstream forms from culture are added to the wells. Forty-eight hours later, the medium is removed from the wells and replaced by […] fresh medium, with or without a serial drug dilution. At this point the L-6 cells should be infected with amastigotes and no free trypomastigotes should be in the medium. Seven 3-fold drug dilutions are used, covering a range from 90 μg/mL to 0.123 μg/mL. Each drug is tested in duplicate. Active compounds are tested twice for confirmation. After 96 hours of incubation the plates are inspected under an inverted microscope to assure growth of the controls and sterility.
Then the substrate CPRG/Nonidet (50 μl) is added to all wells. A colour reaction will become visible within 2-6 hours and can be read photometrically at 540 nm. Data are transferred into a graphics program (e.g., EXCEL), sigmoidal inhibition curves determined and IC50 values calculated.

Assay [3] has as its system Leishmania donovani strain MHOM/ET1671L82. Kind of assay: Leishmaniasis in vitro screening model (axenic amastigotes, Alamar Blue). To be noted: for IC50: Leishmania donovani, read-out: L. donovani IC50. Type of assay: cell-based. How it is done: The Leishmania donovani strain MHOM/ET1671L82 (obtained from Dr. S. Croft, London School of Hygiene and Tropical Medicine) is used. The strain is maintained in the Syrian Golden hamster. Amastigotes are collected from the spleen of an infected hamster. Amastigotes are grown in axenic culture at 37° C. in SM medium (Cunningham I., J. Protozoal. 24:325-329, 1977) at pH 5.4 supplemented with 10% heat-inactivated fetal bovine serum (FBS) under an atmosphere of 5% CO2 in air.
as §1
Assays are performed in 96-well flat-bottom microtiter plates (Costar, Corning Inc.), each well containing 100 μl of culture medium with 105 amastigotes from axenic culture with or without a serial drug dilution. Concentration of amastigotes is determined in a CASY cell analyzing system (Scharfe System, Reutlingen, Germany). Before the amastigotes are counted, the parasite culture is passed twice through a 22-gauge needle to break up clusters of amastigotes.
The highest concentration for the test compounds is 90 μg/mL. Seven 3-fold dilutions are used, covering a range from […]. Each drug is tested in duplicate. Active compounds are tested twice for confirmation. After 72 hours of incubation, the plates are inspected under an inverted microscope to assure growth of the controls and sterile conditions.
Ten μL of Alamar Blue (12.5 mg resazurin dissolved in 100 mL distilled water) are then added to each well and the plates are incubated for another 2 hours. Then the plates are read with a Spectramax GEMINI XS microplate fluorometer (Molecular Devices Cooperation, Sunnyvale, Calif., USA) using an excitation wave length of 536 nm and an emission wave length of 588 nm.
Data are analyzed using the microplate reader software Softmax Pro (Molecular Devices Cooperation, Sunnyvale, Calif., USA). Decrease of fluorescence (i.e. inhibition) is expressed as percentage of the fluorescence of control cultures and plotted against the drug concentrations. The IC50 value is calculated from the sigmoidal inhibition curve by the software program.
On the technique in general: Resazurin is reduced to fluorescent resorufin, in cell work by metabolically active cells.

Each structure is given as a SMILES string. Converted amounts (≈) assume the structure as drawn.

For the compound `Cc1ccc(B(Oc2cccc3cccnc23)c2ccccc2)cc1Cl` [Compound 10, (3-Chloro-4-methylphenyl)phenylborinic acid quinolin-8-yl ester], the IC50 in the assay on P. falciparum K1 was 1.5 µg/mL (≈ 4.19 µM); in assay [1] it was 0.52 µg/mL (≈ 1.45 µM); in assay [2], 4.2 µg/mL (≈ 11.7 µM); in assay [3] it was 0.38 µg/mL (≈ 1.06 µM).
The like results for `Fc1ccc(B(Oc2cccc3cccnc23)c2ccc(F)c(Cl)c2)cc1Cl` [Compound 12, Bis(3-chloro-4-fluoro-phenyl)borinic acid quinolin-8-yl ester] were, in that order, 1.5 µg/mL (≈ 3.62 µM), 0.52 µg/mL (≈ 1.26 µM), 5.6 µg/mL (≈ 13.5 µM) and 0.68 µg/mL (≈ 1.64 µM).
In the case of `Fc1ccc(B(Oc2cccc3cccnc23)c2cccc(Cl)c2)cc1` [Compound 14, (3-Chlorophenyl)(4-fluorophenyl)borinic acid quinolin-8-yl ester], in the assay on P. falciparum K1, the “P. falciparum IC50” value came out at 1.93 µg/mL and the IC50 turned out to be 1.9 µg/mL (≈ 5.25 µM). Also, in assay [1], the “T. b. rhodesiense IC50” value was 0.28 µg/mL and the IC50 turned out to be 0.5 µg/mL (≈ 1.38 µM). Further, in assay [3], the “L. donovani IC50” value came out at 0.48 µg/mL and the IC50 was 0.37 µg/mL (≈ 1.02 µM).
On to `Fc1ccc(B(Oc2cccc3cccnc23)c2ccc(Cl)cc2)cc1` [Compound 15, (4-chlorophenyl)(4-fluorophenyl) borinic acid quinolin-8-yl ester], for which the concentration for half-maximal inhibition (IC50) is 1.82 µg/mL (≈ 5.03 µM) in the assay on P. falciparum K1, 0.28 µg/mL (≈ 0.774 µM) in assay [1], 0.906 µg/mL (≈ 2.51 µM) in assay [2] and 0.5 µg/mL (≈ 1.38 µM) in assay [3].
On to `N#Cc1ccc(B(Oc2cccc3cccnc23)c2cccc(Cl)c2)cc1` [Compound 26, (3-Chlorophenyl)(4-cyanophenyl)borinic acid quinolin-8-yl ester], for which, in the assay on P. falciparum K1, the “P. falciparum IC50” value amounted to 1.44 µg/mL and the IC50 was 1.4 µg/mL (≈ 3.8 µM). Moreover, in assay [1], the “T. b. rhodesiense IC50” value was determined as 0.21 µg/mL and half-maximal inhibition (IC50) was put at 0.29 µg/mL (≈ 0.787 µM). For the same compound, in assay [3], the “L. donovani IC50” value came out at 0.55 µg/mL and the IC50 is 0.41 µg/mL (≈ 1.11 µM).
Turning to `C=CB(Oc1cccc2cccnc12)c1c(C)noc1C` [Compound 118], the “T. b. rhodesiense IC50” value in assay [1] was found to be 0.265 µg/mL. For the same compound, the “T. cruzi IC50” value in assay [2] stood at 3.5 µg/mL. Also, in assay [3], the “L. donovani IC50” value worked out at 0.44 µg/mL.
The corresponding values for `C=CB(Oc1cccc2cccnc12)c1ccc(CN(C)C)cc1` [Compound 119] are 0.51 µg/mL, 3.8 µg/mL and 0.36 µg/mL.
The like results for `N#Cc1cccc(B(Oc2cccc3cccnc23)c2cc(F)cc(C(F)(F)F)c2)c1` [Compound 121] were, in that order, 0.43 µg/mL, 4.95 µg/mL and 0.53 µg/mL.
As for `C=CB(Oc1cccc2cccnc12)c1ccc(CN(C)C)cc1.Cl` [Compound 124], the “T. b. rhodesiense IC50” value in assay [1] was 0.445 µg/mL. In addition, the “T. cruzi IC50” value in assay [2] turned out to be 3.95 µg/mL. Besides, the “L. donovani IC50” value in assay [3] was 0.3 µg/mL.
The like results for `Cc1ccc(B(OC(=O)c2ncccc2O)c2ccc(C)c(Cl)c2)cc1Cl` [Compound 127, Bis(3-Chloro-4-methylphenyl)borinic acid 3-hydroxypicolinate ester] were, in that order, 2.5 µg/mL, 6.3 µg/mL and 0.36 µg/mL.
For `Cc1ccc(B(OC(=O)c2ncccc2C(=O)O)c2ccc(C)c(Cl)c2)cc1Cl` [Compound 128], the “T. b. rhodesiense IC50” value in assay [1] stood at 8 µg/mL. The “T. cruzi IC50” value in assay [2] amounted to 1.75 µg/mL. In assay [3], the “L. donovani IC50” value was found to be 0.61 µg/mL.
The corresponding values for `Cc1ccc(B(OC(=O)c2ncccc2N)c2ccc(C)c(Cl)c2)cc1Cl` [Compound 129] are 4.4 µg/mL, 0.855 µg/mL and 1.6 µg/mL.
The corresponding values for `O=C(OB(c1ccc(Cl)cc1)c1ccc(Cl)cc1)c1cccc(O)n1` [Compound 132] are 45.7 µg/mL, 23.4 µg/mL and 14.1 µg/mL.
As to `N#Cc1cccc(B(OC(=O)c2ncccc2O)c2cccnc2)c1` [Compound 133], in assay [1], the “T. b. rhodesiense IC50” value was 0.86 µg/mL. The “T. cruzi IC50” value in assay [2] was found to be 10.4 µg/mL. The “L. donovani IC50” value in assay [3] stood at 2.2 µg/mL.
The like results for `Cc1cc(Cl)ccc1B(OC(=O)c1ncccc1O)c1ccc(Cl)cc1C` [Compound 134] were, in that order, 1.7 µg/mL, 3.6 µg/mL and 0.12 µg/mL.

What is called IC50 is the concentration needed to halve the response being measured.

The values are drawn from patent US20060014723A1, “Anti-parasitic uses of borinic acid complexes” (priority 2004, published 2006).
